In US5470873A, “Diabetes prevention and treatment using gamma-pyrones” (University Technologies International, Inc., priority 1994, dated 1995):

Experiments:
[1] = Inhibition of hydrogen peroxide induced free radical production (luminol chemiluminescence); assay type: biochemical; conditions: for Chemiluminescence: 3 μM luminol, 20 μl H2O2, without maltol 11845.0 ± 1414.0
Protocol: One of the possible mechanisms for the destruction of pancreatic beta cells in autoimmune Type I diabetes is their damage by free radicals and cytokines released from macrophages and T lymphocytes. It is hypothesized that maltol can inhibit the action of these released radicals and thus prevent Type I diabetes. We measured the effect of maltol on the inhibition of free radicals produced by hydrogen peroxide.
Chemiluminescence produced by hydrogen peroxide was measured using a liquid scintillation counter (LKB 1217/1217 Rack Beta) set to the tritium channel. Briefly, luminol (5-amino-2,3-dihydro-l,4-phthalazinedione) was dissolved in dimethylsulfoxide and diluted with Krebs-Ringer bicarbonate buffer (pH 7.4) containing […] Hepes and no glucose. The final concentration of dimethylsulfoxide was 0.06 μl/ml. Under these assay conditions, 3 μM luminol and various amounts of hydrogen peroxide ranging from 5-20μl were mixed with 5 ml of Krebs-Ringer bicarbonate buffer, with or without maltol. Chemiluminescence was measured for a 30 second period beginning at 20 seconds after the addition of hydrogen peroxide.

pancreatic beta cells = assay: Destruction of pancreatic beta cells detected by fluorescein labelled anti-insulin antibody; assay type: in vivo, NOD mice; conditions: compared to untreated, diabetic NOD mice
Protocol: Fluorescein isothiocyanate-labelled anti-insulin antibody was prepared as described previously 45. Briefly, gamma globulin that was prepared by immunizing guinea pigs with glutaraldehyde polymerized porcine insulin and purified by Sephadex G-200 chromatography was purchased from Index Corp., Glenwood, Ill, USA. This material was labelled with FITC. Unconjugated FITC was removed by dialysis against 0.01M PBS (pH 7.5) and by gel filtration through a Sephadex G-25. The labelled gamma globulin was subsequently absorbed with acetone-treated mouse liver powder to eliminate nonspecific fluorescence. Pancreatic sections (from 25% of each pancreas) prepared from maltol-treated and untreated NOD mice were stained with FITC-labelled anti-insulin antibody and examined under a fluorescent microscope as described elsewhere 47.48. Briefly, pancreatic sections on the slides were flooded with FITC-labelled anti-insulin antibody and incubated in a humidity chamber overnight at 4° C. in the dark. The slides were then washed in three changes of cold PBS for a total of 20 min to remove any unattached antibody, mounted with Elvanol and observed with an Olympus fluorescence microscope ^45. As it is difficult to determine whether the lymphocytes observed in the pancreatic islets are contributing to beta cell destruction, another method was used to determine whether beta cells from maltol-treated or untreated NOD mice were destroyed or not. Sections of pancreatic islets were stained with a fluorescein-labelled anti-insulin antibody and the number of insulin-containing beta cells in the islets was estimated.

[2] = oral; flavoring agents for foods; cited from earlier work
pancreatic islets = assay: Histologic changes of pancreatic islets (hematoxylin and eosin); assay type: in vivo, NOD mice; conditions: compared to untreated, diabetic NOD mice
Excerpt: Maltol-treated and untreated NOD mice were sacrificed and 25% of each pancreas was fixed in 6% Formalin. Paraffin-embedded sections were stained with hematoxylin and eosin and examined under an Olympus light microscope ^49. To see whether there are any histological differences between the pancreatic islets of DPD-treated and untreated NOD mice, the pancreatic islets of 35 week old mice were examined with the light microscope after staining with hematoxylin and eosin. […] The rest of their islets were rated as having either severe (22%), moderate (27%), mild (25%) or no (6%) insulitis. […] In addition, there were histopathological changes in their pancreatic islets that were rated as moderate (22% of examined islets), mild (30%) or as having no insulitis (15%).

[3] = Prevention of clinical diabetes (glycosuria) in NOD mice; assay type: in vivo
Protocol: (§1) NOD mice were dosed with maltol to evaluate its effect on the pathogenesis of type I diabetes. Mice received 5 mg maltol/mouse every other day from age 2 weeks until they were 20 weeks old. Maltol extracted from ginseng as described in Example 2 was used for the first 10 weeks, then maltol purchased from Sigma Co., St. Louis, MO was used thereafter. The mice were kept until they were 35 weeks old. Urine glucose was measured at 3-day intervals from 10 to 35 weeks of age. Urinary glucose and ketone levels were determined using Diastix and Ketostix reagent slips (Miles, Ontario, Canada). Individual mice were classified as being diabetic on the basis of positive glycosuria^38. […] In contrast, 78% of age-matched control mice (22 mice) spontaneously developed autoimmune diabetes. At 35 weeks of age, fasting (8 hours of fasting) and non-fasting blood glucose levels were measured. Blood was obtained from the retro-orbital venous plexus of fasting and nonfasting NOD mice. Glucose levels were measured enzymatically by the glucose oxidase method with o-dianisidine dihydrochloride as the reactive dye ^39-41 . The mean nonfasting blood glucose level of 35 ICR mice (nondiabetic control mice; NOD mice were derived from ICR mice) was 149±27 mg/dl. Any non-fasting mouse with a blood glucose level greater than 230 mg/dl (3 SD above the mean) was scored as diabetic. The mean fasting blood glucose level of 38 ICR mice was 137±28 mg/dl. Any fasting mouse with a blood glucose level greater than 221 mg/dl (3 SD above the mean) was scored as diabetic.

[4] = Blood glucose levels in NOD mice (glucose oxidase method); assay type: in vivo; conditions: 35 weeks of age
Protocol: as §1

[5] = Pancreatic insulin content (immunoreactive insulin, radioimmunoassay) in NOD mice; assay type: in vivo
Protocol: Insulin was extracted from the pancreas of non-obese diabetic (NOD) mouse by known methods ^33,34. Briefly, deep frozen pancreatic tissue (50% of each pancreas) was placed into phosphate buffered saline (PBS) and then extraction solution A (380 ml absolute alcohol, 20 ml H2 O, 8 ml concentrated HCl and some drops of alcoholic phenol red) was added. This mixture was homogenized with polytron type PT 10-20-[…] in glass tubes (15×125 mm) for 30 seconds in position 5. The homogenized material in the tubes was incubated at 4° C. for 10 hours. At the end of the incubation period, the homogenized material was centrifuged at 800 g for 5 minutes for clarification. The supernatant was saved. The pellet was re-extracted with 1 ml of extraction solution B (356 ml absolute alcohol, 124 ml H2 O and 7.5 ml HCl). The pellet in extraction solution B was incubated for 4 hours at 4° C. and then homogenized with a polytron as described above. The homogenized material was centrifuged at 800 g for 5 minutes. The supernatant was pooled with the supernatant from the first extraction. The pooled supernatant was neutralized with concentrated NH40 H (about 10 μl ) until the phenol red turned to purple. The neutralized supernatant was precipitated at 4° C. and then centrifuged at 800 g for 5 min. The supernatant, which contains insulin, was used for the measurement of insulin by radioimmunoassay. The concentration of immunoreactive insulin (IRI) in the pancreas from DPD-treated and untreated NOD mice was measured by radioimmunoassay techniques ^42-44 using mouse insulin as a standard. Briefly, the extracted samples from NOD mice were mixed with […], and anti-insulin antibody. The mixed materials were incubated for 2 hours at room temperature. At the end of the incubation period, anti-guinea pig IgG raised in sheep was added and the mixture was incubated for 30 minutes at room temperature. At the end of the incubation, the samples were centrifuged at 1500 g for 10 minutes. The supernatant was completely removed. The radioactivity of the pellets was measured. The percent of activity was determined by the following formula: [formula] On the basis of % activity in standards, a standard curve was constructed. The concentration of each unknown sample from maltol-treated or untreated NOD pancreas was read on the basis of the standard curve. […] The maltol-treated mice have insulin levels that are similar to the non-diabetic, untreated animals. About 75% of the maltol-treated mice have insulin levels over 80 μg/g pancreas and about 25% have insulin levels between 55-75 μg/g pancreas.

[6] = immunosuppressive therapy, humans; cited from earlier work

Row | Structure (SMILES) | Percent inhibition of free radical production ([1]; 0.2 mM maltol) [%] | Chemiluminescence ([1]; 0.2 mM maltol) [cpm] | Percent inhibition of free radical production ([1]; 2.0 mM maltol) [%] | Chemiluminescence ([1]; 2.0 mM maltol) [cpm] | Percent inhibition of free radical production ([1]; 80 mM maltol) [%] | Chemiluminescence ([1]; 80 mM maltol) [cpm] | Destruction of pancreatic beta cells (in words) (pancreatic beta cells) | Toxicity when taken orally [2] | Lymphocytic infiltration of the pancreatic islets (in words) (pancreatic islets) | Success in preventing clinical diabetes [3] [%] | Mice showing signs of clinical diabetes ([3]; 5 mg/mouse every other day, age 2 to 20 weeks, urine glucose 10 to 35 weeks, untreated 78%) [%] | Prevention / recurrence of clinical diabetes (in words) ([3]; observed to 35 weeks, incl. 15 weeks after cessation of treatment) | Mean fasting blood glucose ([4]; fasting (8 hours), untreated diabetic 334±47) [mg/dL] | Mean non-fasting blood glucose ([4]; non-fasting, untreated diabetic 342±45) [mg/dL] | Pancreatic insulin / protection from beta cell destruction (in words) ([5]; NOD mice) | Pancreatic insulin level ([5]; about 25% of the maltol-treated mice) | Pancreatic insulin level ([5]; about 75% of the maltol-treated mice, majority of untreated less than 10 μg/g) | Effect on course of IDDM [6]
1 | Cc1occc(=O)c1O [maltol, 3-Hydroxy-2-methyl-4-pyrone] | 60 | 4829.3 ± 792.1 | 98 | 210. ± 55.1 | 99.7 | 31.6 ± 3.1 | significantly less destruction of pancreatic beta cells | very low toxicities when taken orally | much less lymphocytic infiltration of the pancreatic islets | 100 | 0 | can prevent clinical diabetes completely | 92 ± 17 | 132 ± 19 | substantial protection from beta cell destruction | 55-75 μg/g pancreas | over 80 μg/g pancreas | –
2 | O=P1(N(CCCl)CCCl)NCCCO1 (stereo not shown) [cyclophosphamide] | – | – | – | – | – | – | – | – | – | – | – | – | – | – | – | – | – | did not alter the course of the disease
3 | CCc1occc(=O)c1O [ethyl maltol] | – | – | – | – | – | – | – | very low toxicities when taken orally | – | – | – | – | – | – | – | – | – | –
